Measurements reported in ChEMBL document CHEMBL5614376, “Discovery of MT-1207: A Novel, Potent Multitarget Inhibitor as a Promising Clinical Candidate for the Treatment of Hypertension” (J Med Chem, 2024).
Activity calls are given as the source filed them. The calls are words filed in the database; no cut-off is given here.

Tests used:
[1] = biological target: T1, Alpha-1A adrenergic receptor (Homo sapiens) (UniProt P35348); assay: Displacement of [3H]prazosin from recombinant human alpha 1A adrenoceptor extracted from CHO cell membrane at 100 nM incubated for 60 mins by radioligand binding assay relative to control; assay type: cell membranes
T1 sequence (whole entry): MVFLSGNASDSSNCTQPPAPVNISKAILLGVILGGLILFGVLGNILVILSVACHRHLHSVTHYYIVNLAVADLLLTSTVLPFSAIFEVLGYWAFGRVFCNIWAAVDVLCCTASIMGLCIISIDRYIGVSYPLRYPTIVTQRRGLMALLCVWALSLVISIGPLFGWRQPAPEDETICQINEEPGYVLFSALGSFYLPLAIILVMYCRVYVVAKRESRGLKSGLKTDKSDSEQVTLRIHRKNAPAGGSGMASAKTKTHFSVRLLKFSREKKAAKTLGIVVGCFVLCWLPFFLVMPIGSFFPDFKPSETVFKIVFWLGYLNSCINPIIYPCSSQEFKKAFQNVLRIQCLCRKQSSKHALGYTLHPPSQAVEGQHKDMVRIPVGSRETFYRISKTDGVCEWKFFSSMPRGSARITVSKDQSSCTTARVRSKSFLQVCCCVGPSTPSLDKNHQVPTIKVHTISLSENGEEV

[2] = biological target: T1, Alpha-1A adrenergic receptor (Homo sapiens); assay: Displacement of [3H]prazosin from recombinant human alpha 1A adrenoceptor extracted from CHO cell membrane at 1 nM incubated for 60 mins by radioligand binding assay relative to control; assay type: cell membranes
[3] = biological target: T2, 5-hydroxytryptamine receptor 2A (Homo sapiens, UniProt P28223); assay: Displacement of [3H]Ketanserin from recombinant human 5-HT2A receptor extracted from CHO cell membrane at 100 nM incubated for 60 mins by radioligand binding assay relative to control; assay type: cell membranes
[4] = biological target: T1, Alpha-1A adrenergic receptor (Homo sapiens); assay: Displacement of [3H]prazosin from recombinant human alpha 1A adrenoceptor extracted from CHO cell membrane at 10 nM incubated for 60 mins by radioligand binding assay relative to control; assay type: cell membranes
[5] = biological target: T2, 5-hydroxytryptamine receptor 2A; assay: Displacement of [3H]Ketanserin from recombinant human 5-HT2A receptor extracted from CHO cell membrane at 10 nM incubated for 60 mins by radioligand binding assay relative to control; assay type: cell membranes
[6] = biological target: T2, 5-hydroxytryptamine receptor 2A; assay: Displacement of [3H]Ketanserin from recombinant human 5-HT2A receptor extracted from CHO cell membrane at 1 nM incubated for 60 mins by radioligand binding assay relative to control; assay type: cell membranes
Rattus norvegicus [7] = assay: Effect on serum creatinine level in 2K2C renovascular hypertensive Sprague-Dawley rat model at 20 mg/kg, po measured after 9 weeks by biochemical analysis; assay type: functional, organism-based
Rattus norvegicus [8] = assay: Effect on serum urea level in 2K2C renovascular hypertensive Sprague-Dawley rat model at 20 mg/kg, po measured after 9 weeks by biochemical analysis; assay type: functional, organism-based
Rattus norvegicus [9] = assay: Antihypertensive activity in 2K2C renovascular hypertensive Sprague-Dawley rat model assessed as systolic blood pressure at 20 mg/kg, po measured after 9 weeks (Rvb ~ 202 mmHg); assay type: functional

T2 sequence (P28223 whole entry): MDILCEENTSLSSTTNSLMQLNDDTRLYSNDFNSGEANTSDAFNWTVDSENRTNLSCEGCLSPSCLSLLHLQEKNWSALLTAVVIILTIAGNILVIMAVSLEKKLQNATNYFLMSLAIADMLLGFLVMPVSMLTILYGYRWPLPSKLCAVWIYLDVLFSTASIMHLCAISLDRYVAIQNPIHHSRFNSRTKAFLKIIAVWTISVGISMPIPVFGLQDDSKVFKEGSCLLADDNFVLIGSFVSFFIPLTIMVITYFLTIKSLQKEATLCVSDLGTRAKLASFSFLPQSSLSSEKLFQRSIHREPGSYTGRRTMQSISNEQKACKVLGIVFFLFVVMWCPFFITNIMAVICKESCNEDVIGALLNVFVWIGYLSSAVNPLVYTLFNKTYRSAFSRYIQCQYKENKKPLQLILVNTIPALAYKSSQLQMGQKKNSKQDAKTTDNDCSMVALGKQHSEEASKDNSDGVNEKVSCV

SMILES | inhibition ([1]; filed as antagonist) | inhibition [2] | inhibition [4] | inhibition ([5]; filed as antagonist) | inhibition ([2]; filed as antagonist) | inhibition ([3]; filed as antagonist) | inhibition ([4]; filed as antagonist) | other results
FC(F)(F)c1cccc(N2CCN(CCCCn3nc4ccccc4n3)CC2)c1 | 53% | -7.22% | -1.54% | – | – | – | – | inhibition [3]: 38.1%
c1ccc(N2CCN(CCCCn3nnc4ccccc43)CC2)cc1 | 79.6% | -9.51% | 35% | – | – | – | – | inhibition [3]: 39.2%
CCCCc1nc(Cl)c(CO)n1Cc1ccc(-c2ccccc2-c2nnn[nH]2)cc1 [LOSARTAN] | – | – | – | – | – | – | – | Activity (Rattus norvegicus [7]): Active; Activity (Rattus norvegicus [8]): Active; Activity (Rattus norvegicus [9]): 176 mmHg
COc1cccc(N2CCN(CCCCn3cnc4ccccc43)CC2)c1 | 95.6% | -1.06% | – | – | – | – | 55% | inhibition [3]: 13.1%
Fc1cccc(N2CCN(CCCCn3nnc4ccccc43)CC2)c1 | 91% | -7.76% | – | – | – | 54% | 46.6% | inhibition [5]: -2.88%
FC(F)(F)c1cccc(N2CCN(CCCCCn3nnc4ccccc43)CC2)c1 | 75.3% | – | 13% | – | – | 71.4% | – | inhibition [5]: 7.37%
FC(F)(F)c1cccc(N2CCN(CCCCCn3nc4ccccc4n3)CC2)c1 | 44.8% | 8.76% | 14.8% | – | – | – | – | inhibition [3]: 14%
COc1cccc(OC)c1OCCNCC1COc2ccccc2O1 (stereo not drawn) | 102% | – | – | – | 46.3% | – | 87% | –
FC(F)(F)c1cccc(N2CCN(CCCCCCn3nc4ccccc4n3)CC2)c1 | – | – | 7.06% | – | – | – | – | inhibition [1]: 30.3%; inhibition [3]: 9.94%
FC(F)(F)c1cccc(N2CCN(CCCCn3nnc4ccccc43)CC2)c1 | 72.5% | -5.08% | 38% | – | – | 63.4% | – | inhibition [5]: 0%
Fc1ccc2ncn(CCCCN3CCN(c4cccc(C(F)(F)F)c4)CC3)c2c1 | 79.7% | -7.67% | 34.7% | – | – | – | – | inhibition [3]: 26.1%
Cc1nc2ccccc2n1CCCCN1CCN(c2cccc(C(F)(F)F)c2)CC1 | 98.9% | 6.89% | – | – | – | – | 79.8% | inhibition [3]: -5.62%
FC(F)(F)c1cccc(N2CCN(CCCn3nc4ccccc4n3)CC2)c1 | – | -8.07% | -9.63% | – | – | 44.7% | – | inhibition [1]: 20.7%
COc1ccccc1N1CCN(CCCCn2cnc3ccccc32)CC1 | 86.9% | -0.88% | 22.8% | – | – | 68.7% | – | inhibition [5]: -4.99%
FC(F)(F)c1cccc(N2CCN(CCCCCCn3nnc4ccccc43)CC2)c1 | 63.3% | – | 4.15% | – | – | 53.5% | – | inhibition [5]: 11.3%; inhibition [6]: -9.54%
FC(F)(F)c1cccc(N2CCN(CCn3nnc4ccccc43)CC2)c1 | – | – | – | – | – | – | – | inhibition [1]: 3.42%; inhibition [3]: 18.9%
c1ccc2c(c1)nnn2CCCCN1CCN(c2noc3ccccc23)CC1 | 100% | – | – | – | 85.9% | 88.8% | 99.2% | inhibition [5]: 38.3%
c1ccc2nn(CCCCN3CCN(c4nsc5ccccc45)CC3)nc2c1 | 100% | – | – | 78.3% | 68.8% | 101% | 96.2% | inhibition [6]: -9.49%
c1ccc2c(c1)nnn2CCCN1CCN(c2nsc3ccccc23)CC1 | 96.4% | – | – | 89.4% | 44.5% | 98.5% | 82.6% | inhibition [6]: 8.15%
O=C(c1ccc(F)cc1)C1CCN(CCn2c(=O)[nH]c3ccccc3c2=O)CC1 | – | – | – | 89.6% | – | – | – | inhibition ([6]; filed as antagonist): 41.2%
c1ccc2c(c1)nnn2OCCCN1CCN(c2nsc3ccccc23)CC1 | 93.7% | – | – | 81.3% | 44.2% | 100% | 82.3% | –
c1ccc2nn(CCCCN3CCN(c4noc5ccccc45)CC3)nc2c1 | 99% | – | – | – | 69.5% | 84.9% | 94% | inhibition [5]: 5.31%
COc1ccccc1N1CCN(CCCOc2cccc(C)c2C)CC1 | 40.1% | – | 7.19% | – | – | – | – | inhibition [3]: 37.7%
FC(F)(F)c1cccc(N2CCN(CCCCn3cnc4ccccc43)CC2)c1 | 89.3% | -1.42% | 36.4% | – | – | – | – | inhibition [3]: 37.7%
c1ccc2c(c1)ncn2CCCN1CCN(c2nsc3ccccc23)CC1 | 98% | 24.6% | – | 68.8% | – | 94% | 74.9% | inhibition [6]: -1.8%
Clc1cccc(N2CCN(CCCCn3nnc4ccccc43)CC2)c1 | 97.4% | 5.9% | – | – | – | 77.6% | 74.2% | inhibition [5]: 17.2%
FC(F)(F)c1cccc(N2CCN(CCCn3nnc4ccccc43)CC2)c1 | 61.3% | – | -2.01% | – | – | 64.5% | – | inhibition [5]: -6.65%

Continued, in another order:

inhibition ([1]; filed as antagonist) | inhibition [2] | inhibition [4] | inhibition ([5]; filed as antagonist) | inhibition ([2]; filed as antagonist) | inhibition ([3]; filed as antagonist) | inhibition ([4]; filed as antagonist) | SMILES | other results
99.9% | – | – | 76% | 69.7% | 94.2% | 97.5% | Fc1ccc2c(C3CCN(CCCn4cnc5ccccc54)CC3)noc2c1 | inhibition [6]: 15.9%
100% | – | – | 87.3% | 52.8% | 98% | 98.4% | Fc1ccc2c(N3CCN(CCCn4cnc5ccccc54)CC3)noc2c1 | inhibition [6]: 24.9%
78% | 11.7% | 27% | – | – | 55% | – | Clc1cccc(N2CCN(CCCCn3cnc4ccccc43)CC2)c1Cl | inhibition [5]: -5.13%
80.1% | -3.72% | 21.3% | – | – | – | – | Fc1cccc(N2CCN(CCCCn3cnc4ccccc43)CC2)c1 | inhibition [3]: 1.87%
99% | 28.9% | – | 98.7% | – | 98.3% | 83.2% | Fc1ccc2c(C3CCN(CCCn4nc5ccccc5n4)CC3)noc2c1 | inhibition ([6]; filed as antagonist): 79.7%
101% | – | – | 61.1% | 83.1% | 96.5% | 99% | Fc1ccc2c(N3CCN(CCCCn4nc5ccccc5n4)CC3)noc2c1 | –
98.8% | 39.8% | – | 96.4% | – | 98.7% | 87.7% | Fc1ccc2c(C3CCN(CCCn4nnc5ccccc54)CC3)noc2c1 | inhibition ([6]; filed as antagonist): 76.9%
101% | – | – | 83.1% | 89.6% | 97% | 100% | Fc1ccc2c(N3CCN(CCCCn4cnc5ccccc54)CC3)noc2c1 | inhibition [6]: 22.6%
95.3% | – | – | 80.9% | 46% | 95.8% | 86.2% | Fc1ccc2c(N3CCN(CCCn4nnc5ccccc54)CC3)noc2c1 | –
101% | – | – | 89.5% | 93.8% | 98.2% | 100% | Fc1ccc2c(C3CCN(CCCCn4nnc5ccccc54)CC3)noc2c1 | inhibition [6]: 39.9%
98.5% | 15.4% | – | – | – | 67.2% | 71.6% | Clc1cccc(N2CCN(CCCCn3cnc4ccccc43)CC2)c1 | inhibition [5]: -1.87%
96.9% | – | – | 71.5% | 98.6% | 95.4% | 95% | Fc1ccc2c(N3CCN(CCCCn4nnc5ccccc54)CC3)noc2c1 | –
99.9% | – | – | 82% | 83.4% | 98.9% | 99.9% | Fc1ccc2c(C3CCN(CCCCn4nc5ccccc5n4)CC3)noc2c1 | inhibition [6]: -5.42%
99.1% | 29.5% | – | 79.1% | – | 99.1% | 65.1% | Fc1ccc2c(N3CCN(CCCn4nc5ccccc5n4)CC3)noc2c1 | inhibition [6]: 5.91%
99.8% | – | – | 93.4% | 78% | 99.6% | 98.9% | c1ccc2c(c1)ncn2CCCCN1CCN(c2nsc3ccccc23)CC1 | inhibition [6]: 15.4%
100% | – | – | 81.9% | 80.7% | 96% | 100% | Fc1ccc2c(C3CCN(CCCCn4cnc5ccccc54)CC3)noc2c1 | inhibition [6]: -3.85%
